“And” between values parts separate entries of the source, which are not always exact repeats. Identical values can stand only once. Like-named read-outs stand apart in the source and are kept apart here.
Legend:
[1] = target: LC3A (Homo sapiens, UniProt Q9H492); assay: FP assay with Cy5-labelled p62 LIR tracer (protein titration and tracer displacement); type: binding; details: for FP assay result (normalised FP signal): replicates, listed as TH152
[2] = target: LC3B (Homo sapiens, UniProt Q9GZQ8); details: for CSP: LC3B:TH152 1:2

CCCCCCC(Sc1nc(Cl)cc(Nc2nc(-c3ccc(C(=O)O)cc3)cs2)n1)C(=O)O (stereo not shown) [compound 21]
% tracer bound @LC3A ([1]; LC3A tracer displacement, normalized on p62-LIR positive control): 26%
FP assay result (normalised FP signal) ([1]; log10 concentration [M] -3.5): 16.9522 and 16.2308 and 9.017 and 3.246
FP assay result (normalised FP signal) ([1]; log10 concentration [M] -4): 23.8052 and 27.7728 and 15.8702 and 10.8206
FP assay result (normalised FP signal) ([1]; log10 concentration [M] -4.5): 40.3968 and 45.4463 and 36.0685 and 29.5762
FP assay result (normalised FP signal) ([1]; log10 concentration [M] -5): 79.7115 and 85.4824 and 71.4157 and 74.3012
FP assay result (normalised FP signal) ([1]; log10 concentration [M] -5.5): 90.532 and 94.4995 and 92.3354 (2×)
FP assay result (normalised FP signal) ([1]; log10 concentration [M] -6): 102.435 and 103.156 and 95.2209 and 98.4671
FP assay result (normalised FP signal) ([1]; log10 concentration [M] -6.5): 94.8602 and 102.795 and 92.3354 and 90.8927
FP assay result (normalised FP signal) ([1]; log10 concentration [M] -7): 102.074 and 100.271 and 99.1885 and 98.4671
FP assay result (normalised FP signal) ([1]; log10 concentration [M] -7.5): 103.877 and 100.271 and 96.6637 and 94.4995
FP assay result (normalised FP signal) ([1]; log10 concentration [M] -8): 101.353 (2×) and 90.1713 and 94.4995
FP assay result (normalised FP signal) ([1]; log10 concentration [M] -8.5): 95.9423 and 95.2209 and 93.4175 and 99.9098
CSP induced ([2]; G85 HN resonance, molar ratio TH152:LC3B 0.125): 0.02291
CSP induced ([2]; G85 HN resonance, molar ratio TH152:LC3B 0.25): 0.03839
CSP induced ([2]; G85 HN resonance, molar ratio TH152:LC3B 0.5): 0.1193
CSP induced ([2]; G85 HN resonance, molar ratio TH152:LC3B 1): 0.155
CSP induced ([2]; G85 HN resonance, molar ratio TH152:LC3B 2): 0.2522
CSP induced ([2]; G85 HN resonance, molar ratio TH152:LC3B 4): 0.2665
CSP induced ([2]; K51 HN resonance, molar ratio TH152:LC3B 0.125): 0.02268
CSP induced ([2]; K51 HN resonance, molar ratio TH152:LC3B 0.25): 0.07734
CSP induced ([2]; K51 HN resonance, molar ratio TH152:LC3B 0.5): 0.1341
CSP induced ([2]; K51 HN resonance, molar ratio TH152:LC3B 1): 0.2088
CSP induced ([2]; K51 HN resonance, molar ratio TH152:LC3B 2): 0.2565
CSP induced ([2]; K51 HN resonance, molar ratio TH152:LC3B 4): 0.2885
CSP ([2]; LC3B residue A75): 0.013 ppm
CSP ([2]; LC3B residue A78): 0.040 ppm
CSP ([2]; LC3B residue A114): 0.035 ppm
CSP ([2]; LC3B residue D19): 0.028 ppm
CSP ([2]; LC3B residue D48): 0.348 ppm
CSP ([2]; LC3B residue D56): 0.088 ppm
CSP ([2]; LC3B residue D104): 0.039 ppm
CSP ([2]; LC3B residue D106): 0.043 ppm
CSP ([2]; LC3B residue E14): 0.013 ppm
CSP ([2]; LC3B residue E18): 0.013 ppm
CSP ([2]; LC3B residue E25): 0.075 ppm
CSP ([2]; LC3B residue E36): 0.143 ppm
CSP ([2]; LC3B residue E41): 0.015 ppm
CSP ([2]; LC3B residue E62): 0.105 ppm
CSP ([2]; LC3B residue E97): 0.079 ppm
CSP ([2]; LC3B residue E100): 0.117 ppm
CSP ([2]; LC3B residue E102): 0.024 ppm
CSP ([2]; LC3B residue E105): 0.037 ppm
CSP ([2]; LC3B residue E117): 0.088 ppm
CSP ([2]; LC3B residue F07): 0.134 ppm
CSP ([2]; LC3B residue F13): 0.017 ppm
CSP ([2]; LC3B residue F52): 0.303 ppm
CSP ([2]; LC3B residue F108): 0.042 ppm
CSP ([2]; LC3B residue F119): 0.051 ppm
CSP ([2]; LC3B residue G40, estimated): 0.060 ppm
CSP ([2]; LC3B residue G107): 0.021 ppm
CSP ([2]; LC3B residue H27): 0.041 ppm
CSP ([2]; LC3B residue H57): 0.104 ppm
CSP ([2]; LC3B residue I23): 0.063 ppm
CSP ([2]; LC3B residue I31): 0.112 ppm
CSP ([2]; LC3B residue I34): 0.268 ppm
CSP ([2]; LC3B residue I35): 0.113 ppm
CSP ([2]; LC3B residue I64): 0.179 ppm
CSP ([2]; LC3B residue I66): 0.103 ppm
CSP ([2]; LC3B residue I67): 0.053 ppm
CSP ([2]; LC3B residue K08): 0.049 ppm
CSP ([2]; LC3B residue K30): 0.042 ppm
CSP ([2]; LC3B residue K39): 0.108 ppm
CSP ([2]; LC3B residue K42): 0.061 ppm
CSP ([2]; LC3B residue K49): 0.162 ppm
CSP ([2]; LC3B residue K51): 0.313 ppm
CSP ([2]; LC3B residue K65): 0.162 ppm
CSP ([2]; LC3B residue K103): 0.084 ppm
CSP ([2]; LC3B residue L22): 0.077 ppm
CSP ([2]; LC3B residue L44): 0.080 ppm
CSP ([2]; LC3B residue L47): 0.391 ppm
CSP ([2]; LC3B residue L53): 0.260 ppm
CSP ([2]; LC3B residue L63): 0.163 ppm
CSP ([2]; LC3B residue L71): 0.095 ppm
CSP ([2]; LC3B residue L73): 0.103 ppm
CSP ([2]; LC3B residue L109): 0.035 ppm
CSP ([2]; LC3B residue M01, estimated): 0.020 ppm
CSP ([2]; LC3B residue M60): 0.042 ppm
CSP ([2]; LC3B residue M111): 0.134 ppm
CSP ([2]; LC3B residue N59): 0.559 ppm
CSP ([2]; LC3B residue N74): 0.039 ppm
CSP ([2]; LC3B residue N76): 0.012 ppm
CSP ([2]; LC3B residue P02, estimated): 0.020 ppm
CSP ([2]; LC3B residue P28, estimated): 0.020 ppm
CSP ([2]; LC3B residue P32, estimated): 0.150 ppm
CSP ([2]; LC3B residue P45, estimated): 0.170 ppm
CSP ([2]; LC3B residue P55, estimated): 0.150 ppm
CSP ([2]; LC3B residue Q09): 0.00263 ppm
CSP ([2]; LC3B residue Q15): 0.016 ppm
CSP ([2]; LC3B residue Q26): 0.095 ppm
CSP ([2]; LC3B residue Q43): 0.037 ppm
CSP ([2]; LC3B residue Q72): 0.019 ppm
CSP ([2]; LC3B residue Q77): 0.045 ppm
CSP ([2]; LC3B residue Q116): 0.027 ppm
CSP ([2]; LC3B residue R10): 0.025 ppm
CSP ([2]; LC3B residue R11): 0.027 ppm
CSP ([2]; LC3B residue R16): 0.021 ppm
CSP ([2]; LC3B residue R21): 0.028 ppm
CSP ([2]; LC3B residue R24): 0.060 ppm
CSP ([2]; LC3B residue R37): 0.107 ppm
CSP ([2]; LC3B residue R68): 0.281 ppm
CSP ([2]; LC3B residue R69): 0.147 ppm
CSP ([2]; LC3B residue R70): 0.122 ppm
CSP ([2]; LC3B residue S03, estimated): 0.020 ppm
CSP ([2]; LC3B residue S61): 0.163 ppm
CSP ([2]; LC3B residue S96): 0.238 ppm
CSP ([2]; LC3B residue S101): 0.072 ppm
CSP ([2]; LC3B residue S115): 0.019 ppm
CSP ([2]; LC3B residue T06): 0.020 ppm
CSP ([2]; LC3B residue T12): 0.021 ppm
CSP ([2]; LC3B residue T29): 0.015 ppm
CSP ([2]; LC3B residue T50): 0.299 ppm
CSP ([2]; LC3B residue T118): 0.045 ppm
CSP ([2]; LC3B residue V17): 0.022 ppm
CSP ([2]; LC3B residue V20): 0.018 ppm
CSP ([2]; LC3B residue V33): 0.194 ppm
CSP ([2]; LC3B residue V46): 0.270 ppm
CSP ([2]; LC3B residue V54): 0.190 ppm
CSP ([2]; LC3B residue V58): 0.313 ppm
CSP ([2]; LC3B residue V98): 0.081 ppm
CSP ([2]; LC3B residue V112): 0.337 ppm
CSP ([2]; LC3B residue Y38): 0.061 ppm
CSP ([2]; LC3B residue Y99): 0.068 ppm
CSP ([2]; LC3B residue Y110): 0.103 ppm
CSP ([2]; LC3B residue Y113): 0.148 ppm
CSP induced ([2]; M111 HN resonance, molar ratio TH152:LC3B 0.125): 0.01154
CSP induced ([2]; M111 HN resonance, molar ratio TH152:LC3B 0.25): 0.02288
CSP induced ([2]; M111 HN resonance, molar ratio TH152:LC3B 0.5): 0.0422
CSP induced ([2]; M111 HN resonance, molar ratio TH152:LC3B 1): 0.08206
CSP induced ([2]; M111 HN resonance, molar ratio TH152:LC3B 2): 0.1192
CSP induced ([2]; M111 HN resonance, molar ratio TH152:LC3B 4): 0.1287
CSP induced ([2]; S90 HN resonance, molar ratio TH152:LC3B 0.125): 0.02291
CSP induced ([2]; S90 HN resonance, molar ratio TH152:LC3B 0.25): 0.03839
CSP induced ([2]; S90 HN resonance, molar ratio TH152:LC3B 0.5): 0.1193
CSP induced ([2]; S90 HN resonance, molar ratio TH152:LC3B 1): 0.155
CSP induced ([2]; S90 HN resonance, molar ratio TH152:LC3B 2): 0.2522
CSP induced ([2]; S90 HN resonance, molar ratio TH152:LC3B 4): 0.2665
CSP induced ([2]; V33 HN resonance, molar ratio TH152:LC3B 0.125): 0.02123
CSP induced ([2]; V33 HN resonance, molar ratio TH152:LC3B 0.25): 0.03832
CSP induced ([2]; V33 HN resonance, molar ratio TH152:LC3B 0.5): 0.08102
CSP induced ([2]; V33 HN resonance, molar ratio TH152:LC3B 1): 0.1239
CSP induced ([2]; V33 HN resonance, molar ratio TH152:LC3B 2): 0.1753
CSP induced ([2]; V33 HN resonance, molar ratio TH152:LC3B 4): 0.2006

— publication PMC11589570, “Critical assessment of LC3/GABARAP ligands used for degrader development and ligandability of LC3/GABARAP binding pockets” (Nature Communications, 2024)
